Measured values as given in article PMC11083148, “Structure–Activity Relationship Studies on Highly Functionalized Pyrazole Hydrazones and Amides as Antiproliferative and Antioxidant Agents” (International Journal of Molecular Sciences, 2024).

How the values were obtained:
[1] = system: U251; assay: NCI screening, CNS Cancer; format: cell-based; settings: 10 µM
Description: (§1) In addition, 11a and 17 (representative compounds of the acylhydrazone and amide series) were selected by the National Cancer Institute (NCI, Germantown, MD, USA) and tested at a fixed concentration of 10 µM against a panel of fifty-nine different cancer cell lines, including highly metastatic tumors (Table 2).

[2] = system: SNB-19; assay: NCI screening, CNS Cancer; format: cell-based; settings: SNB-19, CNS Cancer; 10 µM
Description: as §1

[3] = system: SF-268; assay: NCI screening, CNS Cancer; format: cell-based; settings: SF-268, CNS Cancer; 10 µM
Description: as §1

[4] = system: SF-295; assay: NCI screening, CNS Cancer; format: cell-based; settings: SF-295, CNS Cancer; 10 µM
Description: as §1

[5] = system: SNB-75; assay: NCI screening, CNS Cancer; format: cell-based; settings: SNB-75, CNS Cancer; 10 µM
Description: as §1

[6] = system: SF-539; assay: NCI screening, CNS Cancer; format: cell-based; settings: SF-539, CNS Cancer; 10 µM
Description: as §1

[7] = system: COLO 205; assay: NCI screening, Colon Cancer; format: cell-based; settings: COLO 205, Colon Cancer; 10 µM
Description: as §1

[8] = system: washed platelets; assay: ROS assay in platelets (DCFH-DA, thrombin-stimulated); format: cell-based, human; settings: Homo sapiens, Platelet, 0.1 U/mL thrombin, mean ± SD, read-out: IC50 ROS production inhibition
How it was run: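 Washed human platelets (1.0 × 10^8/mL) in pH 7.4 HEPES buffer were pre-incubated 15 min at 37 °C with compound, then stimulated with 0.1 U/mL thrombin. ROS was read as DCF fluorescence from DCFH-DA by flow cytometry. IC50 comes from three-point concentration-response nonlinear regression versus saline control, mean of six experiments.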

[9] = system: washed platelets; assay: Platelet aggregation (thrombin-induced, Born's method); format: cell-based; settings: Homo sapiens, 0.1 U/mL thrombin, mean ± SD, read-out: IC50 Aggregation inhibition
How it was run: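 Washed human platelets (3.0 × 10^8/mL) were preincubated with compound at 37 °C for 3 min. Aggregation was then triggered with 0.1 U/mL thrombin and measured by Born's turbidimetric method, with IC50 values calculated from the response.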

[10] = system: SKOV3; assay: MTT assay, antiproliferative activity; format: cell-based; settings: Homo sapiens; for Mean growth percentage at 10 µM: SK-OV-3, 10 µM, 48h

SMILES | Growth Percentage (%) [1] [%] | Growth Percentage (%) [2] [%] | Growth Percentage (%) [3] [%] | Growth Percentage (%) [4] [%] | Growth Percentage (%) [5] [%] | Growth Percentage (%) [6] [%] | Growth Percentage (%) [7] [%] | IC50 [8] [µM] | IC50 [9] [µM] | Mean growth percentage at 10 µM [10] [%] | IC50 ([10]; SK-OV-3, MTT) [µM]
COc1ccc(/C=N/NC(=O)c2c(N)nn(C)c2Nc2ccccc2)cc1 [11a, (E)-3-amino-N′-(4-methoxybenzylidene)-1-methyl-5-(phenylamino)-1H-pyrazole-4-carbohydrazide] | 33.33 | 36.78 | 58.65 | 98.52 | 35.14 | 40.20 | 35.82 | 123 ± 12 | 183 ± 13 | 43.6 | 6.88 ± 0.23
CCOC(=O)c1c(NC(=O)C2CC2)nn(C)c1Nc1ccccc1 [compound 17, Ethyl 3-(cyclopropanecarboxamido)-1-methyl-5-(phenylamino)-1H-pyrazole-4-carboxylate] | 100.80 | 98.39 | 101.17 | 102.51 | 94.70 | 97.42 | 106.91 | 573 | 460 | 86.9 | 
